Read-outs that look alike come from different tables or passages of the source.
Key:
[1] = molecular target: T1, human AR (Homo sapiens, UniProt P10275); experiment: AR antagonism assay: inhibition of transcriptional activation of AR (Probasin-luc reporter, COS-1 cells); type: cell-based; conditions: compound 10.0 μM, relative luciferase response: 100% for testosterone (no antiandrogenic effect), 0% for complete antagonism; for remaining activity at 10 µM: COS-1, 18 h, read-out: AR antagonism against 100 nM testosterone ± S.D.
T1 construct: expressed in transfected cells; host or cells: COS-1
T1 sequence (P10275 1-920): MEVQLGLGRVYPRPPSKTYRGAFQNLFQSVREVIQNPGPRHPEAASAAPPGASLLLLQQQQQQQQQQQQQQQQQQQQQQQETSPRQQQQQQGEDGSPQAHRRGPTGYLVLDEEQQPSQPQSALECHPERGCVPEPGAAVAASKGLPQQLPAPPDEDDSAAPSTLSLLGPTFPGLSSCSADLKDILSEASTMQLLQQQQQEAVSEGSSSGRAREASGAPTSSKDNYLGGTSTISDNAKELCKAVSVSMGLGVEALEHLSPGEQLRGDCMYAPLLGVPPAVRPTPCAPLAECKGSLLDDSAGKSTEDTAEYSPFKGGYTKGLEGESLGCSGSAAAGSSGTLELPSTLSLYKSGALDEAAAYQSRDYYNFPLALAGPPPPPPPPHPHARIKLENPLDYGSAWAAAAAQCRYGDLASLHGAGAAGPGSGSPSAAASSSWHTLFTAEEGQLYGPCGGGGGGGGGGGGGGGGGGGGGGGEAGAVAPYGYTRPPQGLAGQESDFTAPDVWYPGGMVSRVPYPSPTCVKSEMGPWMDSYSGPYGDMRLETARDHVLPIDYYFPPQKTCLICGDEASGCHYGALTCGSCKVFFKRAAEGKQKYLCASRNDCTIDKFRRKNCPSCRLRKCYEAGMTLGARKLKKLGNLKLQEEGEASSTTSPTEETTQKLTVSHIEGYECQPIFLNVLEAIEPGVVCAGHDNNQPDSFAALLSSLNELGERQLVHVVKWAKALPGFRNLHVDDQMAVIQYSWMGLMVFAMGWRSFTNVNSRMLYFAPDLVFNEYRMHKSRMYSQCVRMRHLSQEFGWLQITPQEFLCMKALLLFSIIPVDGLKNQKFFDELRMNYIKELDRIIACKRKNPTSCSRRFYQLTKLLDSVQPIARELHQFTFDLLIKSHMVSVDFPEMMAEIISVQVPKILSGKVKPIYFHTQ
Method: Determination of the Antiandrogen Activity.
Testosterone was bought from Sigma Chemical Co. (St. Louis, Mo.) and hydroxyflutamide from Chemos GmbH. One day before transfection, COS-1 cells (from ATCC) were seeded into 1 ml of DMEM (Dulbecco's modified Eagle medium, Gibco) with 10% dextran-charcoal-treated fetal bovine serum and 0.25% (vol/vol) Penicillin-Streptomycin (Euroclone) at a density of 70×10^3 cells/well. After medium change to DMEM 2.5% FBS, the cells were transfected for 24 hours with 10 ng/well of human AR expression vector pSG5-hAR, 100 ng/well of reporter plasmid Probasin-luc, and 10 ng/well of control plasmid pCMV-β-gal by using the TransIT method (Micrus Bio TransIT LT1, Transfection Reagent). After the transfection, the cells received treatment of test compounds giving final concentration of 10 μM for each compound. In the antagonist test the wells were also treated with 100 nM final concentration of testosterone. After 18 hours, the cells were washed, lysed and assayed for luciferase and normalization for β-galactosidase activities and protein concentrations. The cells were washed with 100 μl of cold phosphate buffered saline (PBS) and lysed with 35 μl 1× Reporter lysis Buffer (Promega) and frozen (−70° C.) for 30 minutes. Cell lysates were placed in 1.5-ml propylene tubes and centrifuged at 13200×g for 5 minutes at room temperature. For β-galactosidase assay 10 μl of supernatant from each cell extract was transferred to a 96-well plate (96 well Elisa Microplates, PS, Microcon) and incubated for 10 minutes at 37° C. with 65 μl of reaction mixture consisting 0.76 μl 100×Mg-buffer, 12.5 μl ONPG (4 mg/ml), and 54.3 μl of sodium-phosphate buffer (pH 7). The reaction was stopped with treatment of 125 μl Na2CO3. For luciferase assay 10 μl of the supernatant was transferred to a 96-well plate (Greiner Microlon lumitrac 200) and treated with 30 μl of luciferase assay substrate solution (Promega Luciferase Assay System E1501). For the study of protein concentrations 5 μl of the supernatant was transferred to a 96-well plate (Elisa Microplates, PS, Microcon) and mixed with 200 μl of Bio-rad protein assay reagent. The luciferase activities were measured with Thermo Luminoscan Ascent scanner and the protein concentrations and β-galactosidase activities with Thermo Labsystem Multiscan Ex scanner. Also blank and control samples were measured. During the maintenance, transfection, and treatment with tested compounds the cells were incubated in humidified atmosphere with 5% carbon dioxide at 37° C.

[2] = molecular target: T1, human AR; experiment: Competitive AR binding assay against [3H]-R1881 in transiently transfected COS-1 cells; conditions: compound 13.4 μM, [3H]-R1881 1.34 nM, complete inhibition equals 100%; for inhibition at 13.4 µM: read-out: Inhibition of [3H]-R1881 binding at 1.34 nM ± S.D.
Method: Competitive AR Binding Assay.
AR binding was measured by a competitive assay against [^3H]-R1881 (PerkinElmer) in transiently transfected COS-1 cells. One day before transfection, COS-1 cells were seeded into 2 ml of DMEM (Dulbecco's modified Eagle medium, Gipco) with 10% dextran-charcoal-treated fetal bovine serum and 0.25% (vol/vol) Penicillin-Streptomysin (Euroclone) at a density of 140×10^3 cells/well. After medium change to DMEM 2.5% FBS, the cells were transfected for 24 hours with 10 ng/well of human AR expression vector pSG5 hAR by using the TransIT method (Micrus Bio TransIT LT1, Transfection Reagent). After 36 hours, the cells where treated with tested compounds using 10000 fold molarities compared to labelled R1881 (1.34 nM). After 2 hours of incubation at 37° C., the medium was removed. The cells were removed from the wells to 150 μl of 1× phosphate buffered saline (PBS), transferred to Eppendorf tubes and centrifuged at 4° C. using 4000×g for 5 min, and then washed twice with 150 μl of PBS. The cell pellets were dissolved to 50 μl of 0.5M NaOH and incubated for 15 min at 56° C., after which the samples (three replicates for each sample compound) were transferred to liquid twinkle tubes with 3 ml of OptiPhase HiSafe 3 twinkle solution (PerkinElmer) and radioactivity of AR-bound [^3H]-R1881 determined. The results were measured with LKB WALLAC 1214 racbeta equipment. The ability of test compounds to bind AR is reported as reduction in bound radioactivity obtained with 1.34 nM [^3H]-R1881.
The results (% inhibition) were calculated as: % inhibition=100−[100×(averagecompound/average[3H]-R1881)].

Compound | remaining activity at 10 µM [1] | inhibition at 13.4 µM ([2]; Table 2) | also measured
O=[N+]([O-])c1ccc(C2=NOC3CCCCCCC23)c(C(F)(F)F)c1 (stereo not shown) [Example 46a, 3-(4-Nitro-2-trifluoromethyl-phenyl)-3a,4,5,6,7,8,9,9a-octahydro-cycloocta[d]isoxazole] | 3.1 ± 1.7% | – | inhibition at 13.4 µM ([2]; Table 3): 86.4 ± 1.8%
N#Cc1ccc(C2=NOC3CCCCCCC23)cc1C(F)(F)F (stereo not shown) [Example 92ab, 4-(3a,4,5,6,7,8,9,9a-Octahydro-cycloocta[d]isoxazol-3-yl)-2-trifluoromethyl-benzonitrile] | 24 ± 1.7% | 85.8 ± 1.3% | –
N#Cc1ccc(C2=NOC3CCCCCC23)cc1C(F)(F)F (stereo not shown) [Example 90ab, 4-(4,5,6,7,8,8a-Hexahydro-3aH-cyclohepta[d]isoxazol-3-yl)-2-trifluoromethyl-benzonitrile] | 12.6 ± 0.7% | 98.7 ± 0.6% | –
O=[N+]([O-])c1ccc(C2=NOC3CCCCCCC23)c(C(F)(F)F)c1 (stereo not shown) [Example 46b, 3-(4-Nitro-2-trifluoromethyl-phenyl)-3a,4,5,6,7,8,9,9a-octahydro-cycloocta[d]isoxazole] | – | – | AR antagonism against 100 nM testosterone ± S.D. [1]: 2.2 ± 0.8%; Inhibition of [3H]-R1881 binding at 1.34 nM ± S.D. ([2]; Table 3): 90.4 ± 3.8%
N#Cc1cccc(C2=NOC3CCCCC23)c1C(F)(F)F (single isomer, unassigned) [Example 94b, 3-(3a,4,5,6,7,7a-Hexahydro-benzo[d]isoxazol-3-yl)-2-trifluoromethyl-benzonitrile] | – | – | AR antagonism against 100 nM testosterone ± S.D. [1]: 5.4 ± 1.7%; Inhibition of [3H]-R1881 binding at 1.34 nM ± S.D. ([2]; Table 3): 97.6 ± 0.2%
O=[N+]([O-])c1ccc(C2=NOC3CCCC23)c(C(F)(F)F)c1 (stereo not shown) [Example 22ab, 3-(4-Nitro-2-trifluoromethyl-phenyl)-4,5,6,6a-tetrahydro-3aH-cyclopenta[d]isoxazole] | 21.8 ± 4.1% | – | inhibition at 13.4 µM ([2]; Table 3): 89.3 ± 4.7%
O=[N+]([O-])c1ccc(C2=NOC3CCCCCCC23)cc1C(F)(F)F (stereo not shown) [Example 45ab, 3-(4-Nitro-3-trifluoromethyl-phenyl)-3a,4,5,6,7,8,9,9a-octahydro-cycloocta[d]isoxazole] | 27.8 ± 1% | – | inhibition at 13.4 µM ([2]; Table 3): 85.7 ± 3.8%
N#Cc1ccc(C2=NOC3CCCC23)cc1C(F)(F)F (single isomer, unassigned) [Example 85a, 4-(4,5,6,6a-Tetrahydro-3aH-cyclopenta[d]isoxazol-3-yl)-2-trifluoromethyl-benzonitrile] | – | 87.6 ± 0.3% | AR antagonism against 100 nM testosterone ± S.D. [1]: 44.9 ± 3.6%
Clc1ccc(C2=NOC3CCCCC23)cc1 (single isomer, unassigned) [Example 32b, 3-(4-Chloro-phenyl)-3a,4,5,6,7,7a-hexahydro-benzo[d]-isoxazole] | – | – | AR antagonism against 100 nM testosterone ± S.D. [1]: 91.4 ± 7.7%; Inhibition of [3H]-R1881 binding at 1.34 nM ± S.D. ([2]; Table 1): 0%
O=[N+]([O-])c1ccc(C2=NOC3CCCC23)cc1C(F)(F)F (single isomer, unassigned) [Example 21a, 3-(4-Nitro-3-trifluoromethyl-phenyl)-4,5,6,6a-tetrahydro-3aH-cyclopenta[d]isoxazole] | 19.2 ± 6.8% | – | Inhibition of [3H]-R1881 binding at 1.34 nM ± S.D. ([2]; Table 3): 69.7 ± 4.5%
O=[N+]([O-])c1ccc(C2=NOC3CCCC23)cc1C(F)(F)F (single isomer, unassigned) [Example 21b, 3-(4-Nitro-3-trifluoromethyl-phenyl)-4,5,6,6a-tetrahydro-3aH-cyclopenta[d]isoxazole] | – | – | AR antagonism against 100 nM testosterone ± S.D. [1]: 22.9 ± 4.9%; Inhibition of [3H]-R1881 binding at 1.34 nM ± S.D. ([2]; Table 3): 90.9 ± 0.9%

Continued, in another order:

remaining activity at 10 µM [1] | Compound | inhibition at 13.4 µM ([2]; Table 2) | also measured
14.4 ± 1.9% | N#Cc1cccc(C2=NOC3CCCCCC23)c1C(F)(F)F (stereo not shown) [Example 95a, 3-(4,5,6,7,8,8a-Hexahydro-3aH-cyclohepta[d]isoxazol-3-yl)-2-trifluoromethyl-benzonitrile] | – | inhibition at 13.4 µM ([2]; Table 3): 96.2 ± 0.8%
27.5 ± 4.1% | N#Cc1ccc(C2=NOC3CCCCC23)c(C(F)(F)F)c1 (stereo not shown) [Example 89a, 4-(3a,4,5,6,7,7a-Hexahydro-benzo[d]isoxazol-3-yl)-3-trifluoromethyl benzonitrile] | 78.8 ± 0.6% | –
10.6 ± 1.6% | O=[N+]([O-])c1ccc(C2=NOC3CCCCC23)cc1C(F)(F)F (stereo not shown) [Example 37ab, 3-(4-Nitro-3-trifluoromethyl-phenyl)-3a,4,5,6,7,7a-hexahydro-benzo-[d]-isoxazole] | – | inhibition at 13.4 µM ([2]; Table 1): 93.5 ± 0.9%
10.1 ± 0.9% | O=[N+]([O-])c1ccc(C2=NOC3CCCCCC23)cc1C(F)(F)F (stereo not shown) [Example 41ab, 3-(4-Nitro-3-trifluoromethyl-phenyl)-4,5,6,7,8,8a-hexahydro-3aH-cyclohepta[d]isoxazole] | 97.8 ± 0.5% | –
28.8 ± 2% | Fc1ccc(C2=NOC3CCCCCC23)c(C(F)(F)F)c1 (stereo not shown) [Example 40a, 3-(4-Fluoro-2-trifluoromethyl-phenyl)-4,5,6,7,8,8a-hexahydro-3aH-cyclohepta[d]isoxazole] | 88.8 ± 3.1% | –
23.2 ± 0.5% | Fc1ccc(C2=NOC3CCCC23)c(C(F)(F)F)c1 (stereo not shown) [Example 20a, 3-(4-Fluoro-2-trifluoromethyl-phenyl)-4,5,6,6a-tetrahydro-3aH-cyclopenta[d]isoxazole] | – | inhibition at 13.4 µM ([2]; Table 3): 89.3 ± 3.8%
